The target of series [1] is Tyrosine-protein kinase ABL1 (Homo sapiens, UniProt P00519). The experiment in a line: Inhibition of human ABL1 assessed as residual activity using EAIYAAPFAKKK as substrate by [gamma-33P]-ATP assay.
The nature of series [2]: Metabolic stability in human liver microsomes assessed as half life at 3 uM measured up to 30 mins in presence of NADPH by […] analysis. The class given is ADME, Microsome. (In general: Liver microsomes are vesicles of endoplasmic reticulum, rich in cytochrome P450 enzymes.)
Series [3] is described as follows: Metabolic stability in mouse liver microsomes assessed as half life at 3 uM measured up to 30 mins in presence of NADPH by […] analysis. The class given is ADME, Microsome.
Another series addresses Cytochrome P450 3A4 (Homo sapiens, UniProt P08684). Kind of series: Inhibition of human recombinant CYP3A4 expressed in insect cell microsomes in presence of NADPH by fluorescence assay. The format is ADME.
Series [4] concerns the target Voltage-gated inwardly rectifying potassium channel KCNH2 (Homo sapiens, UniProt Q12809). The experiment in a line: Inhibition of human ERG incubated for 4 hrs by competitive fluorescence tracer binding based assay.
The target of series [5] is T1, Discoidin domain-containing receptor 2 (Homo sapiens) (UniProt Q16832).
T1 sequence (whole entry): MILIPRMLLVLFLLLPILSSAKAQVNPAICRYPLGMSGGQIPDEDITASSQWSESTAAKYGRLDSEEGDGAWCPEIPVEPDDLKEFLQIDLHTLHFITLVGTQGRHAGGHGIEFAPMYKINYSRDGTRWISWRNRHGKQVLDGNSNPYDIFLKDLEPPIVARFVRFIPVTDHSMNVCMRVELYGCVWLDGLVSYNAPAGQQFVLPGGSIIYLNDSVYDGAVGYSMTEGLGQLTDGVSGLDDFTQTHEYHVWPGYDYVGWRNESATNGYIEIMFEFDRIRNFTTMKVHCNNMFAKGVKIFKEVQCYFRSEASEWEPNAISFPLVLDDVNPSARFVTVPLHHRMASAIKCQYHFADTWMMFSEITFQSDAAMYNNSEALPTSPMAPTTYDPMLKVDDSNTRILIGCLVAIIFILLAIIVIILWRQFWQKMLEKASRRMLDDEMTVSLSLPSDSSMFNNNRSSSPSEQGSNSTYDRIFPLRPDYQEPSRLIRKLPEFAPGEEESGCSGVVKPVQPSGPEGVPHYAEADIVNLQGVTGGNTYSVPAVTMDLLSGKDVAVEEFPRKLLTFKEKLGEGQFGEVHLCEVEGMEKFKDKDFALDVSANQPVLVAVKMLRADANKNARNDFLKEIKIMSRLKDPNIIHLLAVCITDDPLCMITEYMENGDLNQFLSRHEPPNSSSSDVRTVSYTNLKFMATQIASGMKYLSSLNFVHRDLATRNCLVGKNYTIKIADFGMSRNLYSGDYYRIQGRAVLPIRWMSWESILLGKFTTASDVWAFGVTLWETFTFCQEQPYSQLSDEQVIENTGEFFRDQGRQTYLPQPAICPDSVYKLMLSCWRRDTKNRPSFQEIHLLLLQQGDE
Kind of series: Inhibition of DDR2 (unknown origin) assessed as residual activity at 10 uM incubated for 5 mins in presence of [gamma-33ATP] by scintillation counting based radiometry assay relative to control.

In series [6] the target is Proto-oncogene tyrosine-protein kinase Src (Homo sapiens, UniProt P12931). Kind of series: Inhibition of SRC (unknown origin) assessed as residual activity at 10 uM incubated for 5 mins in presence of [gamma-33ATP] by scintillation counting based radiometry assay relative to control.
Chain of Proto-oncogene tyrosine-protein kinase Src (P12931 2-536 limits assumed): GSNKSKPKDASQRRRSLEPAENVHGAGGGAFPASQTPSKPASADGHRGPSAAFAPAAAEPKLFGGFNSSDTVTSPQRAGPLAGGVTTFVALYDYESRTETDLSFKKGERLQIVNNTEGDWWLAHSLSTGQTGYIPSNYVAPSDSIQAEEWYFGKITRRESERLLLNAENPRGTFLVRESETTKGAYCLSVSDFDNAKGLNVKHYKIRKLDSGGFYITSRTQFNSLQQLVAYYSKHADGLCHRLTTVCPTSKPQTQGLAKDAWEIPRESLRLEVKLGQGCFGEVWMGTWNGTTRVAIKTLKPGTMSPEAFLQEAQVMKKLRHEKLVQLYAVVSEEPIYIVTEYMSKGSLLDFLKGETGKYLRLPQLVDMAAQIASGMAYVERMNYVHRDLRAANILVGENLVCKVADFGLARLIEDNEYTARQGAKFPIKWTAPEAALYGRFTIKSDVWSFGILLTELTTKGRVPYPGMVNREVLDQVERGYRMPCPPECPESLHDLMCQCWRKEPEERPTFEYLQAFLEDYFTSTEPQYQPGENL
The target in series [7] is T2, Ephrin type-B receptor 2 (Homo sapiens) (UniProt P29323).
T2 sequence (whole entry): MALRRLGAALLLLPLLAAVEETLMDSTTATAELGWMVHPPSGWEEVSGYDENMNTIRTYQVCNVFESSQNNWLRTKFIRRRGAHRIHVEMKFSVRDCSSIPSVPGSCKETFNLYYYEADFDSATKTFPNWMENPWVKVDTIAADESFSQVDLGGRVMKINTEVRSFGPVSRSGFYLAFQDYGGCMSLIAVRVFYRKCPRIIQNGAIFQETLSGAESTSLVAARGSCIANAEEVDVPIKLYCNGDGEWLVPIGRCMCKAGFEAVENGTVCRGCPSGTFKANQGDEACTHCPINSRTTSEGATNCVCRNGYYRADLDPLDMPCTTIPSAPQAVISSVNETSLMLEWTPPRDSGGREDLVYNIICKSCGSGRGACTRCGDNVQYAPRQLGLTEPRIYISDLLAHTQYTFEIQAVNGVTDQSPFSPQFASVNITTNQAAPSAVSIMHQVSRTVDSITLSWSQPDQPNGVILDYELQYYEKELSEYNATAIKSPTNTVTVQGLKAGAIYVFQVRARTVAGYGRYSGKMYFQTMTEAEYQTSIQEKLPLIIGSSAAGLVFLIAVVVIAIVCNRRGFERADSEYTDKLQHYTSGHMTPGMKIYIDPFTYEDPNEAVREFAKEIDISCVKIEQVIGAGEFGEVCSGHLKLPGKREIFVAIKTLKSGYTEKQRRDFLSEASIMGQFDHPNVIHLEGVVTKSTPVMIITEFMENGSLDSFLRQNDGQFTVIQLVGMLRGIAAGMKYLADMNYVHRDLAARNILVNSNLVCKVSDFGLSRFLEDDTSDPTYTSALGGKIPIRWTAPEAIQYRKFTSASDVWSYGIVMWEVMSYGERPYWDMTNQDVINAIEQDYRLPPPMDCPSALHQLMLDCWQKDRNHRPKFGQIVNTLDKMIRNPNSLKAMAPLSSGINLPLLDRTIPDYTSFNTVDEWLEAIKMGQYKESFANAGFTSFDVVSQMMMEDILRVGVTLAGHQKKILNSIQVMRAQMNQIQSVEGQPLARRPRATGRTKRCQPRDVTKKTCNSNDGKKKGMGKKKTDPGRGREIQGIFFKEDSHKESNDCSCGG
Kind of series: Inhibition of EPHB2 (unknown origin) assessed as residual activity at 10 uM incubated for 5 mins in presence of [gamma-33ATP] by scintillation counting based radiometry assay relative to control.

Series [8] addresses Tyrosine-protein kinase Lck (Homo sapiens, UniProt P06239). Kind of series: Inhibition of LCK (unknown origin) assessed as residual activity at 10 uM incubated for 5 mins in presence of [gamma-33ATP] by scintillation counting based radiometry assay relative to control.
Series [9] concerns the target Serine/threonine-protein kinase Nek6 (Homo sapiens, UniProt Q9HC98). The experiment in a line: Inhibition of NEK6 (unknown origin) assessed as residual activity at 10 uM incubated for 5 mins in presence of [gamma-33ATP] by scintillation counting based radiometry assay relative to control.
The species named for a further series is Homo sapiens. The experiment in a line: Inhibition of VEGFR (unknown origin) assessed as residual activity at 10 uM incubated for 5 mins in presence of [gamma-33ATP] by scintillation counting based radiometry assay relative to control.
Series [10] addresses T3, Mitogen-activated protein kinase kinase kinase kinase 3 (Homo sapiens) (UniProt Q8IVH8).
T3 sequence (whole entry): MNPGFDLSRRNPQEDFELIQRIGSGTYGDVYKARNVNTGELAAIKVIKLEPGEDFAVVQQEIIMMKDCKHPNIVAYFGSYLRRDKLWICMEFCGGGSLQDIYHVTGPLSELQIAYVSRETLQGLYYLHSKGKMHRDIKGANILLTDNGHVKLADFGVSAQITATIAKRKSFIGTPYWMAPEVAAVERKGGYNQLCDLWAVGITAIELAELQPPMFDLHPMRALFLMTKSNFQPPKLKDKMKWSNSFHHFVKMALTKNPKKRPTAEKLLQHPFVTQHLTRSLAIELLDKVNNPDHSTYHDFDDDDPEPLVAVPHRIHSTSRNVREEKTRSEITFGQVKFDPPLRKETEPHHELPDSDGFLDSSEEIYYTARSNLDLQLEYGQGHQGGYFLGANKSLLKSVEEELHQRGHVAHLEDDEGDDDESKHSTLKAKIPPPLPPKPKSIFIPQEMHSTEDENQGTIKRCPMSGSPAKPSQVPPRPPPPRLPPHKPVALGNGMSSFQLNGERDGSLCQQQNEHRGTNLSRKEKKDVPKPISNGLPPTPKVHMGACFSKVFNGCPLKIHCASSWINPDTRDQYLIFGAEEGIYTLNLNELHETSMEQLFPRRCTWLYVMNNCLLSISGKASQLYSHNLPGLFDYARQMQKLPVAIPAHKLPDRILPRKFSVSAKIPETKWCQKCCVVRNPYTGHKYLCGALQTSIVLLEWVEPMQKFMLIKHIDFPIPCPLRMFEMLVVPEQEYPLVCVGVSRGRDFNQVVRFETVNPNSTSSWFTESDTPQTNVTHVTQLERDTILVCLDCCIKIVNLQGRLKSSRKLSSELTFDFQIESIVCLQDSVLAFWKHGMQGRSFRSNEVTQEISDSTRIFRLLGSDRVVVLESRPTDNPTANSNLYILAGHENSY
Kind of series: Inhibition of MAP4K3 (unknown origin) assessed as residual activity at 10 uM incubated for 5 mins in presence of [gamma-33ATP] by scintillation counting based radiometry assay relative to control.

A value given as a limit tells only on which side of the number the result lay.

Usually IC50 stands for the concentration at which inhibition is half-maximal. For orientation: half-life means how long it takes for the measured level to halve.

Chain of Tyrosine-protein kinase ABL1 (P00519 whole entry): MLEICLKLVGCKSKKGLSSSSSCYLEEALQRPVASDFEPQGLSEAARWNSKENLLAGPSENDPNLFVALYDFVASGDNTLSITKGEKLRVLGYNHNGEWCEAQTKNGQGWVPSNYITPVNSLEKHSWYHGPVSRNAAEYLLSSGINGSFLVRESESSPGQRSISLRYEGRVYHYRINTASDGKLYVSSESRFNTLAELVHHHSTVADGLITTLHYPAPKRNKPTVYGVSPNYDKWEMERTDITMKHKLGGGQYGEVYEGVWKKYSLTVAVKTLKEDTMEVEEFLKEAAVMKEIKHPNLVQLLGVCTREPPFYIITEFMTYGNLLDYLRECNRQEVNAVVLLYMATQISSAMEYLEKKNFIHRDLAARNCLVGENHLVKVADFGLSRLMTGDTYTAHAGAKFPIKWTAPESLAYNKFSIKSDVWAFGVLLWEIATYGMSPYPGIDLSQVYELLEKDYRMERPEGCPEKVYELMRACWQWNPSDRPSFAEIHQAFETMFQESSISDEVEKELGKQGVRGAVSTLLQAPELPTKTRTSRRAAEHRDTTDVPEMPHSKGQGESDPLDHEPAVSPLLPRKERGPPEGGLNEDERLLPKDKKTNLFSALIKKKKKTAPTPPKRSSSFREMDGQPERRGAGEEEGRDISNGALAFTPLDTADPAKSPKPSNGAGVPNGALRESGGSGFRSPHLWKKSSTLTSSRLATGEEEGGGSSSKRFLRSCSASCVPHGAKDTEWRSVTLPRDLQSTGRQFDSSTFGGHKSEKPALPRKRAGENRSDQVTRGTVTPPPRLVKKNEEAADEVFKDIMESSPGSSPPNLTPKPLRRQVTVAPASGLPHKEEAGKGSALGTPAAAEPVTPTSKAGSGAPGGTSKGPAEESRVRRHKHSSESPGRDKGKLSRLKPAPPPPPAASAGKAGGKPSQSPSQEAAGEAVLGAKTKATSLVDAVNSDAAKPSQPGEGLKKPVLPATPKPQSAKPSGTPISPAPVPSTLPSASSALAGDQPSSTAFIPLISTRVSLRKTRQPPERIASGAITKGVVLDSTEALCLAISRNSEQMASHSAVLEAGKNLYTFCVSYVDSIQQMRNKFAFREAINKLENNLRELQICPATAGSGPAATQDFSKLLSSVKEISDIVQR
Chain of Voltage-gated inwardly rectifying potassium channel KCNH2 (Q12809 whole entry, the tested form may be a part): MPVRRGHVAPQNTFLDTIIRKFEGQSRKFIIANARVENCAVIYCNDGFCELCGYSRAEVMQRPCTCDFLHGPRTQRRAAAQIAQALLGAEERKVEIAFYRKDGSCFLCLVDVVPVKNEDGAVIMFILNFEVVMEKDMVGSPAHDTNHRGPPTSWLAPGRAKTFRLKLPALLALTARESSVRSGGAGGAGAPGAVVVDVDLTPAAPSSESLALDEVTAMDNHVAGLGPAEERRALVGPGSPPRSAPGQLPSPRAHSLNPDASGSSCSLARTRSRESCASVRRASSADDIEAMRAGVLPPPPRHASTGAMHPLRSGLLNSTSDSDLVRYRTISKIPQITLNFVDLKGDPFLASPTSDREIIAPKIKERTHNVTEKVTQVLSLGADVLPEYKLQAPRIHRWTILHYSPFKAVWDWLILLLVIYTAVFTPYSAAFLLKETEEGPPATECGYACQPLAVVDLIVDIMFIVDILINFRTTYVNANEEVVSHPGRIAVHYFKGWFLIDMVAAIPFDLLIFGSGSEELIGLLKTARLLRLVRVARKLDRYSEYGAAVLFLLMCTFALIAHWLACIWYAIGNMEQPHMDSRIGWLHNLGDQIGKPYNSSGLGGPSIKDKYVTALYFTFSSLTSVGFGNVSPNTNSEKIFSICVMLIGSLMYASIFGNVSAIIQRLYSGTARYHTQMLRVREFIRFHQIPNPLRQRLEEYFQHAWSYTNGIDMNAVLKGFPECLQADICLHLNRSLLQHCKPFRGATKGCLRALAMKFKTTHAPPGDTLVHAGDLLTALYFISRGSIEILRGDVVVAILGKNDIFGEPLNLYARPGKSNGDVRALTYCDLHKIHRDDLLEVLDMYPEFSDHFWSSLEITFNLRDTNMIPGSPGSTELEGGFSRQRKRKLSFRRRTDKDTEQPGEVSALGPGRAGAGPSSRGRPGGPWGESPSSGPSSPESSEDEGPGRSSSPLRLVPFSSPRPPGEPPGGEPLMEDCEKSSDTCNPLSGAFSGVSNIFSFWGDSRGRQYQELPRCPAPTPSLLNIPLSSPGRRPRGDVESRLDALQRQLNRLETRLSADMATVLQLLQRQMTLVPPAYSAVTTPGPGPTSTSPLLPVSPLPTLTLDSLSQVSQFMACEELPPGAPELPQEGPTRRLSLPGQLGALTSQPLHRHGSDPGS
Chain of Cytochrome P450 3A4 (P08684 whole entry): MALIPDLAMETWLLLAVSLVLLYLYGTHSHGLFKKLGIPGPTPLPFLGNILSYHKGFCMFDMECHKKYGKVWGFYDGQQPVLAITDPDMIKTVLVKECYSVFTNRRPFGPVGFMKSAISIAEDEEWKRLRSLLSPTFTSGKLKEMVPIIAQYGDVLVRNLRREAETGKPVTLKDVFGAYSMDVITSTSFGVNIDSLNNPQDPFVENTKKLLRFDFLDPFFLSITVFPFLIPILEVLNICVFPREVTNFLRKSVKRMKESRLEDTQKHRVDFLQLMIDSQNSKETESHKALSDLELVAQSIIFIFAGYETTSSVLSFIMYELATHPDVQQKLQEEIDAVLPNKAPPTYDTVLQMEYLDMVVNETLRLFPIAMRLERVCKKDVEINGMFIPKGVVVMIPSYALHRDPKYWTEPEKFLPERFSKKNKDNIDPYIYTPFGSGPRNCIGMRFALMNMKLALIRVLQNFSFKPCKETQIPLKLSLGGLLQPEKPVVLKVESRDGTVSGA
Chain of Serine/threonine-protein kinase Nek6 (Q9HC98 whole entry): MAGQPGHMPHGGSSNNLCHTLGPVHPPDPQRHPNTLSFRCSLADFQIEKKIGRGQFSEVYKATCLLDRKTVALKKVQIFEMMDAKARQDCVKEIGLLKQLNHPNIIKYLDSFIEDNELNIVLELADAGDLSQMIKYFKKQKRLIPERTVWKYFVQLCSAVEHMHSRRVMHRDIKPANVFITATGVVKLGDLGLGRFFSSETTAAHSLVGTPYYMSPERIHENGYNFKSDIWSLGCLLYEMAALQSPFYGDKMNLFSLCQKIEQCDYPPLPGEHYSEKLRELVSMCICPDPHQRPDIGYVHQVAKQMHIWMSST
Chain of Tyrosine-protein kinase Lck (P06239 2-509 limits assumed): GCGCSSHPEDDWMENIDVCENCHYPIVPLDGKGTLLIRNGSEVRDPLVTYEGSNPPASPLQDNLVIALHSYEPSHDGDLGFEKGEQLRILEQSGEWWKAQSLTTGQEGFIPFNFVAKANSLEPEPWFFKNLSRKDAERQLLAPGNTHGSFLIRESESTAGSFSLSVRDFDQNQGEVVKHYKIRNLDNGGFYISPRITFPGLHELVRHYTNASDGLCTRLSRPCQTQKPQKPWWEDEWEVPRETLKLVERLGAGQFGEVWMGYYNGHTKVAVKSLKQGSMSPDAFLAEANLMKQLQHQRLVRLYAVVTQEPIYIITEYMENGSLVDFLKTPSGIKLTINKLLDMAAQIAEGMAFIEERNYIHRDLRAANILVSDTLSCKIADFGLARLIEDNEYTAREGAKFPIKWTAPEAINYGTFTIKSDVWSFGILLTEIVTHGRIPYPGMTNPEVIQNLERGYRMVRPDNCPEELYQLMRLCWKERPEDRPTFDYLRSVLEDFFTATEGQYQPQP

Consider `Cc1ccc(C(=O)Nc2ccc(CN3Cc4ccc(O)cc4C3)c(Cl)c2)cc1C#Cc1cnc2cccnn12`, for which the IC50 in [1] was greater than 30 nM. In addition, the half-life at 3 µM in series [2] is 2.63 h; in [3] it was 0.441 h.

As for `COCCN1CCN(Cc2ccc(NC(=O)c3ccc(C)c(C#Cc4cnc5cccnn45)c3)cc2C2CC2)CC1`, the IC50 at Cytochrome P450 3A4 turned out to be 13500 nM; in series [4], 80 nM.

For `Cc1ccc(C(=O)Nc2ccc(CN3CCN(CCO)CC3)c(C3CC3)c2)cc1C#Cc1cnc2cccnn12`, the values for the IC50 in series [1] and in [4] were 0.3 nM and 340 nM, respectively.

In the case of `Cc1ccc(C(=O)Nc2ccc(CN3CCN(C)CC3)c(C(F)(F)F)c2)cc1C#Cc1cnc2cccnn12` [PONATINIB], the half-life at 3 µM worked out at 3.04 h in [2] and 0.532 h in series [3]. Moreover, the Activity in series [5] came to 3%; in series [6] it was 11%; in series [7], 2%; in [8], 29%; in [9], 52%; in the series listed under Homo sapiens it was 28%. Moreover, the Activity in series [10] came to 2%.

For `Cc1ccc(C(=O)Nc2ccc(CN3CCN(CCO)CC3)c(Cl)c2)cc1C#Cc1cnc2cccnn12`, the IC50 in series [1] came out at 0.39 nM; at Cytochrome P450 3A4 it was 13400 nM; in [4] it was 100 nM.

The values above are taken from ChEMBL document CHEMBL4602709 (ACS Med Chem Lett, 2020).
